Usually Ki stands for a measure of affinity in units of concentration, obtained from inhibition or displacement. Higher therefore signals weaker binding. The IC50 is the concentration at which inhibition is half-maximal. The term half-life denotes the time in which the quantity being followed falls by half.

The record followed here is paper PMC8901119 (Chemical Science, 2021).

Series [1] deals with T1, Cts L (Homo sapiens, UniProt P07711). Briefly: Cathepsin L inhibition assay with Z-FR-AMC. The following applies: Cts L, mixed inhibition model fit, Z-FR-AMC, pH 5.5, 27 °C.
T1 sequence (P07711 114-333): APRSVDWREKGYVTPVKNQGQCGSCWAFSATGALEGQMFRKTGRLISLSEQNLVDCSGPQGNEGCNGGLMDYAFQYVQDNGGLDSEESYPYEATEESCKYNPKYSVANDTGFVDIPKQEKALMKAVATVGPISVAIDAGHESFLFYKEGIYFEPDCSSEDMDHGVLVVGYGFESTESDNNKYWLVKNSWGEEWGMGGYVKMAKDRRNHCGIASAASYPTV
Description: The peptide inhibitors were pre-incubated with the appropriate proteases in the assay buffer for 10 min to ensure full interactions prior being added to the fluorogenic substrates. The fluorescence of the reaction was monitored as a function of time at 460 nm with an excitation wavelength of 380 nm by a Tecan M1000 plate reader. Each assay was done in triplicates to ensure reproducibility.
Cathepsin L Inhibition Assay. For cathepsin L (Cts L, ≥ 0.5 units/mg protein, solution; from human liver), various concentrations of the substrate Z-FR-AMC (1 μM, 2 μM, 3 μM, 5 μM, 7
μM, 10 μM, 15 μM, and 20 μM) were reacted with 37.9 nM Cts L in a 96-well plate at 27 °C.
Assay buffer consisted of100 mM sodium acetate, 100 mM NaCl, 1 mM EDTA, and 5 mM DTT
with this KSP1 peptide were conducted in 12.3 mM Na2HPO4, 87.7 mM NaH2PO4, 100 mM NaCl,
5 mM DTT, 1 mM EDTA, pH 6.0 at 27 °C – the buffer condition used for this peptide construct
3 A stock solution of 220 μg/mL enzyme in 20 mM malonate, 1 mM EDTA, 400
mM NaCl, pH 5.5 was diluted with the assay buffer. Peptide (inhibitor) stock solutions were
prepared in a minimal amount of Milli-Q water then diluted to the desired concentrations with the
assay buffer. A 5 mM stock solution of the fluorogenic substrate Z-FR-AMC (Bachem; Torrance, CA, USA) was initially prepared in DMSO and diluted with assay buffer. The diluted solution of
Cts L was incubated in the assay buffer with or without the peptide inhibitor at room temperature
for 10 min. For each 50 μL reaction, 25 μL of this Cts L solution (either with or without the peptide inhibitor) was added to 25 μL diluted Z-FR-AMC substrate to initiate the reaction. The fluorescence of the reaction was monitored as a function of time at 460 nm with an excitation wavelength of 380 nm on the Tecan M1000 plate reader. Three independent trials were performed
for each assay to ensure reproducibility. For analysis, the fluorescence data was converted to rates
of proteolysis in terms of concentration (μM/min) by a conversion factor calculated from a linear
fit of the endpoint fluorescence at complete hydrolysis versus substrate concentration. The initial reaction rate was then calculated by extracting the slope of a linear fit of the first 2 min of the
progress curve (Figures S13-S19). These curves were fit to a Michaelis-Menten enzyme kinetic
Kinetics Analysis of the Peptide Inhibitors of Cathepsin L, V, K, B, and S
For Cts L, from initial evaluation of the kinetic parameters obtained from fitting to Michaelis-
data from Z-FR-AMC inhibition assays with Cts L was thus further fitted to a general Mixed
Inhibition Model in GraphPad Prism version 8.4.3 (GraphPad Software; La Jolla, CA), using
A mixed Inhibition Mechanism for Reversible Inhibitors. Abbreviations: E: enzymes;
S: substrate; I: inhibitor; P: product; EI: enzyme-inhibitor complex; ESI: enzyme-substrate-
inhibitor complex; KI: dissociation constant for the EI complex; αK I (also known as KI'):
dissociation constant for the ESI complex.
This general mixed-inhibition model uses a global fitting in which Vmax, KM, KI, constant α and are
shared. The constant α here determines the degree to which inhibitor binding changes the affinity
of the enzyme for substrate; the value of α is always greater than zero.5, 6 An α = 1 (K I = αKI)
complex (ES); the model then becomes identical to a noncompetitive inhibition model.5, 6 When α
> 1, the inhibitor binds preferentially to the free enzyme (E); if α = ∞, the inhibitor binds almost
exclusively the free enzyme and this model becomes identical to competitive inhibition.5, 6 If 0 <α
The target of series [2] is T2, Cts S (Homo sapiens, UniProt P25774).
T2 construct: purchased Sigma-Aldrich; host or cells: FreeStyle 293-F cells
T2 sequence (P25774 115-331): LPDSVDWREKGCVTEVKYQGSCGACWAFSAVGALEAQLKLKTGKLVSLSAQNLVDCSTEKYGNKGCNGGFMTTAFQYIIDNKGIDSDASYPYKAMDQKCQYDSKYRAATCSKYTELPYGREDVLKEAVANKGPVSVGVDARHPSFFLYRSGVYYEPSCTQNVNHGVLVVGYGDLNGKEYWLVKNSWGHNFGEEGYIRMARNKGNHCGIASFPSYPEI
As to the kind of experiment: Cathepsin S inhibition assay with Z-LR-AMC. It is filed as biochemical. Conditions: approximate; competitive model. As for the experimental part: (§1) Phan et al. Electronic SupplementaryInformation
Cathepsin S Inhibition Assay. For cathepsin S (Cts S, 2 mg/mL, solution; recombinant, expressed in FreeStyle™ 293-F cells, ≥90% pure by SDS-PAGE), various concentrations of the substrate Z- […]
A stock solution of 2 mg/mL enzyme in 45 mM Tris-HCl, pH 8.0, 124 mM NaCl, 2.4 mM KCl, 225 mM imidazole, 3 mM DTT, and 10% glycerol was diluted with assay buffer containing 5 mM DTT. Peptide (inhibitor) stock solutions […]
with the assay buffer. A 20 mM stock solution of the chromogenic substrate Z-LR-AMC (Bachem; […]
assay to ensure reproducibility. […]
progress curve (Figure S23). Similar to the analysis with Cts L, these curves were fit to Michaelis - Menten enzyme kinetic model in Prism 8 (GraphPad Software; La Jolla, CA) using Eq. S1 to determine Vmax and KM (Table S21). 5 Turnover number (k cat) was calculated by dividing Vmax by the enzyme concentration (Table S21).
(§2) Similar analysis was done for Cts V, Cts K, Cts S, and Cts B to evaluate and approximate the inhibitory effects of the thiopeptide RS1A. Initial evaluation of the kinetic parameters were obtained […]
(§3) 24), then the data were further analyzed with the non-linear regression method with a mixed - […]
the mechanism with the parameter α. Further fitting to an appropriate model (e.g. uncompetitive, competitive, or non-competitive model) was performed if needed. […]

In series [3] the target is T3, Cts B (Homo sapiens, UniProt P07858).
T3 construct: cathepsin B (Cts B, ≥1,500 units/mg protein, solution; from human liver); purchased Sigma-Aldrich; host or cells: human liver (tissue-purified)
Briefly: Cathepsin B inhibition assay with Z-RR-AMC. The following applies: approximate; competitive model. Type of series: biochemical. As for the experimental part:
as §1
Cathepsin B Inhibition Assay. For cathepsin B (Cts B, ≥1,500 units/mg protein, solution; from […]
and 5 mM DTT (pH 5.5). A stock solution of enzyme in 50 mM sodium acetate, pH 5.0, with 1 […]
Diluted solution of Cts B was […]
kinetic model in Prism 8 (GraphPad Software; La Jolla, CA) using Eq. S1 to determine Vmax and KM (Table S22). 5 Turnover number (k cat) was calculated by dividing Vmax by the enzyme concentration(Table S22).
as §2, §3
(§4) the mechanism with the parameter α. Further fitting to an appropriate model (e.g. uncompetitive, competitive, or non-competitive model) was performed if needed. The approximate kinetic parameters resulted from best fit models for the RS1A peptide and the corresponding proteases are […]
(§5) Table S24. Approximate Kinetic Parameters for Cts L, V, K, S, and B Inhibition by R S1A Peptide (μHLFR SAμ).
(§6) Protease α (Best Fitted Model) KI (μM) αKI or KI'
(§7) Cts S Very large (Competitive) 53.47 ± 11.42 - Cts B Very large (Competitive) >> 50 -

Series [4] has as its target T1, Cts L. Briefly: Cathepsin L activity assay with HepG2 whole cell lysate. Type of series: biochemical. Details: Cts L activity in human hepatocellular carcinoma HepG2 whole cell lysate; host or cells: HepG2 whole cell lysate. Conditions: 0.05 mg/mL lysate, 200 μM Ac-FR-AFC, 37 °C, 1 h. As for the experimental part: Cts L activity in human hepatocellular carcinoma HepG2 whole cell lysate (200 μg at 2.5 mg mL^−1; ab166833; Abcam, Cambridge, MA) was evaluated using a fluorometric Cathepsin L Activity Assay Kit (ab65306; Abcam, Cambridge, MA, USA) following the manufacturer's protocols. […] The cell lysate and the peptide inhibitor were incubated at room temperature for 10 min. A total of 2 μL of 10 mM CL substrate Ac-FR-AFC substrate (to a final concentration of 200 μM) was then added to each well, except the Lysate Background Control wells. Different concentrations (56 nM, 560 nM, and 1 μM) of SID 26681509, a known Cts L inhibitor, were used as positive controls. The samples were mixed; the plate was sealed to avoid evaporation and incubated at 37 °C for 1 h. The fluorescence of each sample was measured at 505 nm with an excitation wavelength of 400 nm on the Tecan plate reader. […]
Cts L activity in human hepatocellular carcinoma HepG2 whole cell lysate (200 µg at 2.5 mg/ml; ab166833; Abcam, Cambridge, MA, USA) was evaluated using a fluorometric Cathepsin L Activity Assay Kit (ab65306; Abcam) following the manufacturer’s protocols. […] The fluorescence of each sample was measured […]
fluorescence data shown in Figure 4 in the main text are the average of three replicates. […]

Series [5] deals with T4, Cts V (Homo sapiens, UniProt O60911).
T4 construct: purchased Sigma-Aldrich; host or cells: FreeStyle 293-F cells
T4 sequence (O60911 114-334): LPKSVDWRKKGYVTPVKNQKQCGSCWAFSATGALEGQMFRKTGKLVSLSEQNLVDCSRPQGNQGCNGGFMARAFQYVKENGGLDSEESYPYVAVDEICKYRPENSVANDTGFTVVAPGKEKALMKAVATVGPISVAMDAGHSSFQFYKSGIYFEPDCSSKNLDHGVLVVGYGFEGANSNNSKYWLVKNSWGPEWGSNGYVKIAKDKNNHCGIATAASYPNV
Briefly: Cathepsin V inhibition assay with Z-LR-AMC. It is filed as biochemical. The following applies: pH 5.5, 27 °C, approximate. The procedure: as §1
Cathepsin V Inhibition Assay. For cathepsin V (Cts V, 0.38 mg/mL, solution; recombinant, expressed in FreeStyle™ 293-F cells, ≥90% pure by SDS-PAGE), various concentrations of the […]
A stock solution of 0.35 mg/mL enzyme
Three independent trials were
Similar to the analysis with Cts L, these curves
CA) using Eq. S1 to determine Vmax and KM (Table S19). 5 Turnover number (k cat) was calculated by dividing V max by the enzyme concentration (Table S19).
as §2, §3, §4, §5, §6, §7

A short description of series [6]: Stability of peptides in HepG2 whole cell lysate. It is filed as in vitro ADME. Conditions: human, 20 μM peptide, 0.05 mg/mL lysate, HPLC. As for the experimental part:
Stability of Peptides in HepG2 Whole Cell Lysate
Using the same conditions as the previous Cts L Activity Assay in HepG2 Whole Cell Lysate, 50 μL peptide (either R1A or RS1A; final concentration 20 μM) was incubated in 50 μL HepG2 whole cell lysate (to a final concentration of 0.05 mg/mL) in the assay buffer for different time points.
The all-amide peptide, R 1A, was incubated for t = 0, 5, 10, 15, 20, and 30 minutes. The thioamide peptide, RS1A, was incubated for t = 0, 2, 6, 8, 10, and 24 hours. After incubation for the desired amount of time, 100 μL methanol was added to the mixture and incubated at -20 °C for 10 minutes before spinning down at 13,000 rpm for 10 minutes. Then, 180 μL of each mixture was further diluted with 220 μL Milli-Q water to a total volume of 400 μL before adding 1 μL 0.42 mM coumarin internal standard for HPLC analysis. The coumarin internal standard was used to normalize the amount of intact peptide in each sample. A Phenomenex Luna® Omega 5 µm PS C18 100 Å analytical column was used to analyze all samples using the same gradient of 20-40 % B over 20 minutes (Solvent A: 0.1% TFA in Milli-Q water; Solvent B: 0.1% TFA in acetonitrile).
Representative HPLC spectra (325 nm) at different time points were also shown to confirm the stability of the peptides in HepG2 whole cell lysate (Figure S26 A & B). MALDI MS was used to confirm the mass from each fraction from the HPLC from experiment with the all-amide peptide (R 1A – expected [M+H]+ = 1133.51 m/z) and the thioamide peptide ( RS1A – expected [M+H]+ = 1149.48 m/z). To calculate the percent intact peptide for each sample, the average ratio of intact peptide to internal standard was compared to that ratio at t = 0. For each time point, the experiment

A short description of series [7]: HepG2 whole cell lysate. The following applies: human, 37 °C, up to 24 hours.
Series [8] in a line: HepG2 whole cell lysate in CL assay buffer. Conditions: human, 37 °C, up to 30 minutes (R1A); 24 hours (RS1A).
In series [9] the test system is cathepsin B (Cts B). Conditions: human, 27 °C, up to 100 min.

Values joined by “and” are separate entries in the source; they are usually repeats but may differ in a detail not shown here. Equal values may be shown once. “Also recorded” adds a separate entry of the source. Starred links: 1 amine or outer side, 2 acyl side, 3 side chain; linkers in the order of their positions; H or OH if unused. Non-standard residues stand in square brackets, D forms with d. Residues, ends and D or L forms follow the SMILES beside them. Ala(7-MeO-coumarin-4-yl) = COc1ccc2c(C[C@H](N)C(=O)O)cc(=O)oc2c1; X1 = C[C@H](NC(=S)[C@H](CCCNC(=N)N)N[*:1])C(=O)[*:2]

On to `COc1ccc2c(C[C@H](NC(=O)[C@H](C)NC(=S)[C@H](CCCNC(=N)N)NC(=O)[C@H](Cc3ccccc3)NC(=O)[C@H](CC(C)C)NC(=O)[C@H](Cc3c[nH]cn3)NC(=O)[C@@H](N)Cc3cc(=O)oc4cc(OC)ccc34)C(=O)O)cc(=O)oc2c1` [RS1A] (H-[Ala(7-MeO-coumarin-4-yl)]HLF[X1][Ala(7-MeO-coumarin-4-yl)]-OH), for which the figures for the inhibition constant Ki in [1], in series [2] and in series [3] were 1.11 ± 0.22 µM, 53.5 ± 11.4 µM and over 50 µM, respectively.
Turning to `COc1ccc2c(C[C@H](NC(=O)[C@H](C)NC(=S)[C@H](CCCNC(=N)N)NC(=O)[C@H](Cc3ccccc3)NC(=O)[C@H](CC(C)C)NC(=O)[C@H](Cc3c[nH]cn3)NC(=O)[C@@H](N)Cc3cc(=O)oc4cc(OC)ccc34)C(=O)O)cc(=O)oc2c1` [R^S1A] (H-[Ala(7-MeO-coumarin-4-yl)]HLF[X1][Ala(7-MeO-coumarin-4-yl)]-OH), the IC50 in series [4] is 19 µM and 19.3 µM. The Ki in series [5] stood at 26.2 ± 8.42 µM. In series [6], this compound showed a half-life at 20 μM of 28.6 h.
For “μHLFRAμ (H-[Ala(7-MeO-coumarin-4-yl)]HLFRA[Ala(7-MeO-coumarin-4-yl)]-OH; SMILES COc1ccc2c(C[C@H](NC(=O)[C@H](C)NC(=O)[C@H](CCCNC(=N)N)NC(=O)[C@H](Cc3ccccc3)NC(=O)[C@H](CC(C)C)NC(=O)[C@H](Cc3c[nH]cn3)NC(=O)[C@@H](N)Cc3cc(=O)oc4cc(OC)ccc34)C(=O)O)cc(=O)oc2c1)”, the fragment found entry is given as “μHLFR, 5 mins; also recorded: Aμ, 5 mins” in [7] and “µHLFR; Aµ, 5 mins” in series [8]. Moreover, the cleaved bond result in [9] was “R-A”.
